Values joined by “and” are separate entries in the source; they are usually repeats but may differ in a detail not shown here. Identical values can stand only once. Like-named read-outs stand apart in the source and are kept apart here.
Test: Stability and biodistribution of prodrugs in vivo (HPLC of plasma and tissues)
Parameters: species or system mice (CD-1 nude; BALB/C where indicated)
Conditions: 50 mg/kg i.p. or i.v., CD-1 nude mice
[1] = LARGE INTESTINE, 30 min, 50 mg/kg
[2] = LIVER, 120 min, listed as 552W92, 50 mg/kg
[3] = mouse, kidney, 50 mg/kg, KIDNEY, 30 min, read-out: stability: percentage of material observed as intact prodrug, kidney
[4] = mouse, kidney, 50 mg/kg, KIDNEY, 120 min, read-out: stability: percentage of material observed as intact prodrug, kidney
[5] = mouse, large intestine, 50 mg/kg, LARGE INTESTINE, 30 min, read-out: stability: percentage of material observed as intact prodrug, large intestine
[6] = mouse, large intestine, 50 mg/kg, LARGE INTESTINE, 120 min, read-out: stability: percentage of material observed as intact prodrug, large intestine
[7] = mouse, liver, 50 mg/kg, LIVER, 30 min, read-out: stability: percentage of material observed as intact prodrug, liver (converted)
[8] = mouse, liver, 50 mg/kg, LIVER, 120 min, read-out: stability: percentage of material observed as intact prodrug, liver
[9] = mouse, plasma, 50 mg/kg, PLASMA, 30 min, read-out: stability: percentage of material observed as intact prodrug, plasma
[10] = mouse, plasma, 50 mg/kg, PLASMA, 120 min, read-out: concentration of prodrug in plasma
[11] = mouse, small intestine, 50 mg/kg, SMALL INTESTINE, 30 min, read-out: stability: percentage of material observed as intact prodrug, small intestine
[12] = mouse, small intestine, 50 mg/kg, SMALL INTESTINE, 120 min, read-out: stability: percentage of material observed as intact prodrug, small intestine
[13] = mouse, spleen, 50 mg/kg, SPLEEN, 30 min, read-out: stability: percentage of material observed as intact prodrug, spleen
[14] = mouse, spleen, 50 mg/kg, SPLEEN, 120 min, read-out: stability: percentage of material observed as intact prodrug, spleen

With `Cc1nc2ccc3ccc(CNc4ccc(C(=O)N[C@@H](CCC(=O)O)C(=O)N[C@@H](Cc5cccc6ccccc56)C(=O)O)c(F)c4)cc3c2c(=O)[nH]1` [Prodrug 3, N-(N-(2-fluoro-4-(((1,2-dihydro-3-methyl-1-oxobenzo(F)quinazolin-9-yl)methyl)amino)benzoyl)-L-glutam-1-yl)-3-(1-naphthyl)-L-alanine] the “concentration of prodrug in kidney” value (KIDNEY, 30 min, 50 mg/kg) was 41.7 nmol/g and 29.2 nmol/g, the “concentration of prodrug in large intestine” value [1] was 23.4 nmol/g and 14.9 nmol/g and the “stability: percentage of material observed as intact prodrug, large intestine” value [1] was 94%. For the same compound, the “concentration of prodrug in large intestine” value (LARGE INTESTINE, 120 min, listed as 552W92, 50 mg/kg) was 1.7 nmol/g and 1.1 nmol/g, the “concentration of prodrug in liver” value (LIVER, 30 min, 50 mg/kg) was 128.8 nmol/g and 135.3 nmol/g and the “concentration of prodrug in liver” value [2] was 267.9 nmol/g and 371.2 nmol/g. For the same compound, the “stability: percentage of material observed as intact prodrug, liver” value [2] was 90%, the “stability: percentage of material observed as intact prodrug, plasma” value (PLASMA, 120 min, listed as 552W92, 50 mg/kg) was 48% and the concentration (PLASMA, 120 min, listed as 552W92, 50 mg/kg, 120 min, read-out: concentration of prodrug in plasma) was 2.8 µM. For the same compound, the “concentration of prodrug in small intestine” value (SMALL INTESTINE, 30 min) was 27.7 nmol/g, the “concentration of prodrug in small intestine” value (SMALL INTESTINE, 120 min) was 1.8 nmol/g and the “stability: percentage of material observed as intact prodrug, spleen” value (SPLEEN, 30 min, 50 mg/kg) was 100%. The “stability: percentage of material observed as intact prodrug, spleen” value (SPLEEN, 120 min, listed as 552W92, 50 mg/kg) was 100%, the remaining at 0.5 h [3] was 82% and the remaining at 2 h [4] was 74%. For the same compound, the remaining at 0.5 h [5] was 87%, the remaining at 2 h [6] was 89% and the remaining at 0.5 h [7] was 79%. The remaining at 2 h [8] was 74%, the remaining at 0.5 h [9] was 93% and the concentration at 2 h [10] was 5.1 µM. It also gave a remaining at 0.5 h [11] of 10%, a remaining at 2 h [12] of 1% and a remaining at 0.5 h [13] of 95%. The remaining at 2 h [14] was 89%.

With `Cc1nc2ccc3ccc(CNc4ccc(C(=O)N[C@@H](CCC(=O)O)C(=O)N[C@@H](CCC(=O)O)C(=O)O)c(F)c4)cc3c2c(=O)[nH]1` [Prodrug 1, N-(N-(4(((1,2-dihydro-3-methyl-1-oxobenzo(F)quinazolin-9-yl)methyl)amino)-2-fluorobenzoyl)-L-glutam-1-yl)-L-glutamic acid] the “concentration of prodrug in cecum” value (CECUM, 30 min) was 6.0 nmol/g, the “concentration of prodrug in cecum” value (CECUM, 120 min) was 1.2 nmol/g and the “concentration of prodrug in kidney” value (KIDNEY, 30 min) was 175.8 nmol/g. The “concentration of prodrug in kidney” value (KIDNEY, 120 min) was 70.3 nmol/g, the “concentration of prodrug in large intestine” value (LARGE INTESTINE, 30 min) was 12.2 nmol/g and the “concentration of prodrug in large intestine” value (LARGE INTESTINE, 120 min) was 1.0 nmol/g. The “concentration of prodrug in liver” value (LIVER, 30 min) was 770.3 nmol/g, the “concentration of prodrug in liver” value (LIVER, 120 min) was 579.8 nmol/g and the “concentration of prodrug in small intestine” value (SMALL INTESTINE, 30 min) was 48.2 nmol/g. For the same compound, the “concentration of prodrug in small intestine” value (SMALL INTESTINE, 120 min) was 55.6 nmol/g, the “concentration of prodrug in spleen” value (SPLEEN, 30 min) was 23.4 nmol/g and the “concentration of prodrug in spleen” value (SPLEEN, 120 min) was 1.8 nmol/g. For the same compound, the “concentration of prodrug in tumor” value (TUMOR, 30 min) was 6.0 nmol/g, the “concentration of prodrug in tumor” value (TUMOR, 120 min) was 1.2 nmol/g and the remaining at 0.5 h (mouse, cecum, 50 mg/kg, CECUM, 30 min, read-out: stability: percentage of material observed as intact prodrug, cecum) was 96%. For the same compound, the remaining at 2 h (mouse, cecum, 50 mg/kg, CECUM, 120 min, read-out: stability: percentage of material observed as intact prodrug, cecum) was 76%, the remaining at 0.5 h [3] was 98% and the remaining at 2 h [4] was 97%. It also gave a remaining at 0.5 h [5] of 93%, a remaining at 2 h [6] of 100% and a remaining at 0.5 h [7] of 98%. The remaining at 2 h [8] was 97%, the concentration at 0.5 h (mouse, plasma, 50 mg/kg, PLASMA, 30 min, read-out: concentration of prodrug in plasma) was 41.5 µM and the remaining at 0.5 h [9] was 99%. For the same compound, the concentration at 2 h [10] was 4.2 µM, the remaining at 2 h (mouse, plasma, 50 mg/kg, PLASMA, 120 min, read-out: stability: percentage of material observed as intact prodrug, plasma) was 100% and the remaining at 0.5 h [11] was 83%. It also gave a remaining at 2 h [12] of 68%, a remaining at 0.5 h [13] of 100% and a remaining at 2 h [14] of 100%. The remaining at 0.5 h (mouse, tumor, 50 mg/kg, TUMOR, 30 min, read-out: stability: percentage of material observed as intact prodrug, tumor) was 96% and the remaining at 2 h (mouse, tumor, 50 mg/kg, TUMOR, 120 min, read-out: stability: percentage of material observed as intact prodrug, tumor) was 76%.
